Experiment: Human HepG2 cell viability assay in 384 well format
Type: toxicity, cell-based
Parameters: dose 125 nL, time 70.5 hour; concentration not given beside the values
Details: HepG2 cells, read-out: Inhibition

| SMILES | cytotoxicity at 70.5 h |
| --- | --- |
| COc1ccc(CNCc2ccnc(N3CCOCC3)c2)cc1OC | -10.1% |
| Cc1ccccc1OC1CCN(CC(=O)Nc2ccn(C)n2)CC1 | -7.79% |
| Cc1ccc(S(=O)(=O)NCCc2ccoc2)s1 | -9.94% |
| CC(C)Nc1nc2c(c(NC3CC3)n1)CN(C(=O)c1ccncc1)CC2 | 32.7% |
| O=C(c1cccnc1Oc1ccccc1)N1CCCn2ncnc21 | 4.54% |
| Cc1cnn(CC(C)NCc2ccccc2OCc2cccnc2)c1 (stereo not given) | -7.82% |
| Cc1cccn2c(=O)cc(CSCC(=O)Nc3nnc(C(C)C)s3)nc12 | 1.52% |
| Cc1ccc(N2CCC3(CC2)CC(OCC(=O)N(C)C)CO3)nn1 (stereo not given) | -8.76% |
| Cc1ccc(C(=O)N(CC(=O)O)CC(C)C)cc1F | -7.92% |
| Cc1n[nH]c(C2CN(C(=O)CCc3cscn3)CCO2)n1 (stereo not given) | -1.63% |
| CC(C)N(C(=O)Cn1nnnc1CCc1ccccc1)C(C)C | 10.7% |
| COCCC1(C(=O)O)CCCN(c2cc(C)c3ccccc3n2)C1 (stereo not given) | -8.76% |
| O=C(c1ncccn1)N1C[C@@H]2COC[C@]2(c2nnc(C3CC3)o2)C1 | 9.47% |
| Cc1cnc(CN(C)C2CCCN(Cc3noc(C4CC4)n3)C2)cn1 (stereo not given) | 16.1% |
| C[C@@H]1CN(S(=O)(=O)N2CCCC2)C[C@@]1(O)C1CC1 | -4.68% |
| COc1ccccc1C1(O)CCCN(C(=O)c2ccnn2C(C)C)C1 (stereo not given) | -1.5% |
| Cc1nccn1-c1ccc(NC(=O)C2CCCN2Cc2c[nH]cn2)cc1 (stereo not given) | 14.9% |
| CCn1nnc2c1C(COCCN(C)C)CN(S(=O)(=O)CC)C2 (stereo not given) | -1.87% |
| O=C(Cn1cccc2cc(-c3ccc(F)cc3)nc1-2)N1CCC(O)CC1 | 3.41% |
| COc1cccc2c3c(c(=O)[nH]c12)CCC(C)(C)O3 | -5.31% |
| CN(Cc1nccs1)C1CCN(c2cccc(-c3cscn3)c2)CC1 | 10.5% |
| Cc1nc(C)n(CC2CCCN2c2ncnc3ccsc23)n1 (stereo not given) | -5.53% |
| O=C(CN1CCCCC1=O)N1CCC2(CC1)[C@H](O)C[C@@H]2O | -3.31% |

| SMILES | cytotoxicity at 70.5 h |
| --- | --- |
| O=C(NCC1CCN(c2ncccn2)CC1)c1cnccn1 | -12.6% |
| CNc1snc(C)c1C(=O)N1CCCC(n2cc(C)cn2)C1 (stereo not given) | -8.17% |
| CC(C)c1ncc2c(n1)CN(Cc1ccc(C(N)=O)cc1)CC2 | 24.1% |
| Cn1cc(CN(Cc2ccccc2)Cc2ccccn2)cn1 | 18% |
| Cc1nc(CN2CCCC(N(C)Cc3nnsc3Cl)C2)no1 (stereo not given) | -1.91% |
| CN1CCN(C)C(CNC(=O)N(C)Cc2ccc(Cl)c(F)c2)C1 (stereo not given) | -11.2% |
| Cc1nc(C)n(CC2CCCN(Cc3noc(C)n3)C2)n1 (stereo not given) | -5.88% |
| CNC(=O)C1(CCCc2ccncc2)CCCN1 (stereo not given) | -7.77% |
| Cc1cc(-c2ccc(C(C)N3CCOCC3)cc2)cnc1N (stereo not given) | -4.56% |
| CC(CS(C)(=O)=O)N(C(=O)CCc1ccsc1)C1CC1 (stereo not given) | -4.58% |
| Cc1cnc(N2CCC3(CC2)CN(c2ccsc2)C(=O)CO3)nc1 | -5% |
| COc1cc(F)ccc1C(C(=O)O)N(C)CCN1CCOCC1 (stereo not given) | 15.1% |
| CC(C)Sc1ncccc1C(=O)NCc1cccc(N(C)C)c1 | 0.244% |
| O=S(=O)(Nc1cnn(C2CCOCC2)c1)c1c(F)cccc1F | -1.01% |
| CC(C(=O)NCc1ccc(N2CCCC2)nc1)n1cncn1 (stereo not given) | -0.612% |
| Cc1nc(C2CCCN(S(C)(=O)=O)C2)sc1Br (stereo not given) | -0.507% |
| CCn1ncc2c1CN(C(=O)Cc1ccccn1)CC2COC (stereo not given) | -3.07% |
| Cc1[nH]/c(=N\C(=O)c2csc(NCC(C)C)n2)sc1C | 5.69% |
| COc1cccc(-c2ncc(CN3CCOCC(O)C3)s2)c1 (stereo not given) | -6.59% |
| NS(=O)(=O)c1ccc(NCc2ccccc2F)cc1C(F)(F)F | 1.33% |
| COc1ccc(CN(C)C2CSCCSC2)c2cccnc12 | -6.62% |
| CCC(C)Nc1ccc(-c2nc(-c3cccc(OC)c3OC)no2)cn1 (stereo not given) | 13.1% |
| CCc1ccc(C(=O)Nc2ccc(CC3CC(=O)NC3=O)cc2)cc1 (stereo not given) | 1.34% |

| SMILES | cytotoxicity at 70.5 h |
| --- | --- |
| Cc1cccc(NS(=O)(=O)c2cc3c(c(C(=O)O)c2)OCCO3)c1 | -7.67% |
| Cc1ccc(C(=O)Nc2nnc(C(C)C)s2)c(-n2cnnn2)c1C | -5.81% |
| COc1ccc(-c2ccc(C(=O)O)c(F)c2)c(F)c1 | 27.5% |
| N#Cc1cccc(CN2CCC3(CC(C(=O)NCC4CC4)=NO3)C2)c1 (stereo not given) | -4.48% |
| CSc1nc(C2CC2)nc(C)c1C(=O)NCc1ncc(C)o1 | -2.47% |
| Cn1ccnc1CNC[C@H]1Cn2cc(-c3ccccc3)nc2CO1 | -8.01% |
| CCc1cnc(N2C[C@@H]3[C@@H](C(=O)N(C)C)CCS(=O)(=O)[C@@H]3C2)nc1 | -7.5% |
| CCOCC(=O)N1CCC(Oc2ccc(C(F)(F)F)cn2)CC1 | -4.36% |
| COc1ccc(CN2CCN(C(=O)c3ccc(C)n3C)CC2)cc1 | -11.9% |
| Cc1cc(C2CCCN(S(=O)(=O)N(C)C)C2)ccn1 (stereo not given) | 23.8% |
| CC(CNCc1ccc(Cl)cc1)Oc1ccccn1 (stereo not given) | -10% |
| Cc1ccc2[nH]c3c(c2c1)CN(C(=O)CN(C)CC1OCCO1)CC3 | -1.1% |
| CNC(=O)C1Cn2ccnc2C2(CCN(Cc3cccnc3)CC2)O1 (stereo not given) | 2.48% |
| O=c1c2ccc(C(F)(F)F)cc2ncn1CCCN1CCCCC1CO (stereo not given) | 14.6% |
| CCS(=O)(=O)CCCN1CCSCC1c1ccc(Cl)cc1 (stereo not given) | -13.2% |
| c1cnn(CC2CN(Cc3nc(-c4ccoc4)no3)CCO2)c1 (stereo not given) | 24.3% |
| Cc1noc(C(C)N2CCc3[nH]c4ccc(Cl)cc4c3C2)n1 (stereo not given) | -8.97% |
| Cc1ncc(C(=O)N2CCOC(C(=O)N3CCCCCC3)C2)c(C)n1 (stereo not given) | 1.17% |
| COC1CCN(C(=O)c2ccc3ncsc3c2)CC1 | -2.33% |
| Cc1noc(C)c1CN(C)C(=O)C1CCCc2ccccc21 (stereo not given) | -0.492% |
| N#Cc1cnc(NC2CCN(C(=O)C3CC3)CC2)c(Cl)c1 | 0.703% |
| Cn1cc(CN2CCn3cc(CNC(=O)c4cccn4C)nc3C2)cn1 | -2.17% |
| Cc1nnc([C@@H]2CCO[C@@H]3CCN(C(=O)Cc4ccsc4)C[C@@H]32)o1 | -5.87% |

| SMILES | cytotoxicity at 70.5 h |
| --- | --- |
| CCCNC(=O)c1nn(CC)cc1Cl | -3.27% |
| Clc1cnccc1NCc1cccc(COC2CCOCC2)c1 | -0.494% |
| CCc1ccc(C(=O)Nc2cc(N3CCNC3=O)ccc2Cl)o1 | -5.46% |
| O=C(NCC1CCS(=O)(=O)C1)N(Cc1ccco1)C1CC1 (stereo not given) | -10.7% |
| CCS(=O)(=O)NCC(=O)N1CC2(CCCC2)c2c(F)cccc21 | -1.86% |
| Cc1ccccc1N1CCN(C(=O)c2ccc[nH]2)C(C)C1 (stereo not given) | -2.71% |
| Cc1cc(C(F)(F)F)cc(=O)n1CCCn1cnnn1 | -11.2% |
| CCNc1cc2c(nn1)CCN(C(=O)C1Cc3ccccc3S1)C2 (stereo not given) | -6.84% |
| CCC(CC)C(=O)NCc1c(C)nn(C)c1N1CCCN(C)CC1 | 22.5% |
| CCCc1cc(=O)[nH]c(-c2cccc(CN3CCCCCC3)c2)n1 | 25.8% |
| Cc1cc(CN2CC[C@H]3C[C@H](C(=O)N(C)C)O[C@@H]3C2)no1 | -13.6% |
| Cc1cncc(NCC(O)c2ccco2)n1 (stereo not given) | -9.53% |
| O=C(c1c(O)cc(F)cc1F)N1CCc2cnccc21 | 0.9% |
| COc1cccc(CC(C)NC(=O)NC(C)C)c1 (stereo not given) | -2.35% |
| CN1CCC(N(Cc2ccccc2)C(=O)c2ccn3cncc3c2)CC1 | 3.64% |
| CS(=O)(=O)c1ccc2c(c1)N(C(=O)Cc1cccc(F)c1)CCC2 | -0.9% |
| Cc1cc(=O)n2nc(CNc3cc(Cl)ccc3C)nc2[nH]1 | -9.92% |
| CC(O)CN1CCN(C(=O)c2cccn2Cc2cccnc2)CC1 (stereo not given) | -11.4% |
| CCC(CC)C(=O)NCCC(=O)N1CCN(c2ccccn2)CC1 | 2.35% |
| Cc1nn(C)c(C)c1NC(=O)CCn1ncc2c(C)cccc21 | -5.31% |
| CCOC(=O)N1C[C@H]2CC[C@@H]1CN(Cc1ccccc1)C2 | -6.47% |
| CCOc1cc(CN(C)Cc2ccccc2)ccc1OC(F)F | -6.62% |
| CCc1cc(C(=O)N2CCCC(c3cc(=O)nc4n3CCC4)C2)no1 (stereo not given) | -6.36% |

| SMILES | cytotoxicity at 70.5 h |
| --- | --- |
| COCCCC1CCCCN1C(=O)c1ccc(SCCO)cc1 (stereo not given) | 6.41% |
| O=C(c1cccnc1)N1C[C@@H]2OCCN(CCN3CCCC3)[C@@H]2C1 | -10% |
| Cc1cc(C)c(-n2cc(CCO)cn2)cc1C | 22.1% |
| Cn1ccnc1SCCNC1CCN(c2ncccn2)CC1 | -1.29% |
| CCOc1ccc(C(=O)N2CCCC2c2c(C)nn(C)c2OC)cn1 (stereo not given) | -4.47% |
| CNc1ccnc(NCCSc2nccn2C)n1 | -1.64% |
| Cc1nc(CN2CCc3nn(C)c(=O)cc3C2)oc1C | -9.42% |
| CS(=O)(=O)NCC1CCCCN1C(=O)c1ccc(Br)s1 (stereo not given) | -6.12% |
| CN(C)c1cc(CNC(=O)Nc2nnc(C3CC3)s2)ccn1 | 1.07% |
| c1cncc(OCc2noc3c2CN(Cc2ccco2)CC3)c1 | -17.4% |
| CCC(O)CNc1nccc(-c2ccc(C)nc2C)n1 (stereo not given) | -14.6% |
| CC(=O)Nc1nc(C(=O)N2CCCC(n3nc(C)nc3C)C2)cs1 (stereo not given) | -10.7% |
| Cc1nccc(-c2ccccc2)c1C(=O)N1CCC2(CC(=O)NC2=O)C1 (stereo not given) | -0.158% |
| Clc1cc(NCc2ccncc2)nc2[nH]ccc12 | 13% |
| CC(=O)N1CCC(NC2(Cc3cc(CC(C)C)on3)COC2)CC1 | 3.96% |
| Cc1cc(CNc2ccccc2N2CCCCC2)no1 | -24% |
| Cc1nccn1-c1ccc(=O)n(CCNC(=O)c2cccs2)n1 | -11.7% |
| CC(=O)NCc1ccc(S(=O)(=O)NC(=O)c2ccc3c(c2)COC3)cc1 | -4.89% |
| Cc1ccc(C(=O)NC2CCN(Cc3noc(CC(C)C)n3)CC2)s1 | 7.31% |
| CN(C)c1ncc(-c2cccc(F)c2)c(C2CNCCO2)n1 (stereo not given) | -5.48% |
| O[C@H]1CCN(CCCOc2ccccc2F)C[C@@]12CCCO2 | 18.1% |
| COCc1nn(C(C)C)c2c1CCN(Cc1ccsc1)C2 | -5.82% |
| O=C(NC1CCC(C(=O)N2CCSCC2)CC1)N1CCC1 (stereo not given) | -6.98% |

Source: ChEMBL document CHEMBL3507680, “University of Dundee, Gates Library screen for HepG2 cell viability”
